Common to all, as to assay: MIC, agar dilution test
Format in all cases: cell-based
For orientation: Agar dilution tests growth on a series of plates holding different concentrations.

One assay concerns E. coli T 7. The note with it: Escherichia coli, T7, Isosensitest medium, Denley multipoint inoculator. The source says: (§1) Agar dilution test (Isosensitest medium); Denley multi-
For another assay, the system named is Klebsiella 8085. The conditions noted are these: Isosensitest medium, Denley multipoint inoculator.
Description: as §1

The subject of a further assay is E. coli A 261. The note with it: Escherichia coli, A261, Isosensitest medium, Denley multipoint inoculator.
Description: as §1

In the next assay the test system is E. coli Neumann. The note with it: Escherichia coli, Isosensitest medium, Denley multipoint inoculator.
Description: as §1

In brackets after ≈: the same amount, converted by molar mass.

Consider 2 compounds from patent publication US4847375A, “Antibacterial 1,8-bridged 4-quinoline-3-carboxylic acids” (Bayer Aktiengesellschaft, priority 1985, dated 1989).

As usually defined, the MIC is the least concentration at which growth counts as inhibited. A high value points to a less susceptible organism. On to `CC1(C)COc2c(N3CCNCC3)c(F)cc3c(=O)c(C(=O)O)cn1c23` [Example 7], for which the MIC with E. coli T 7 is 0.5 µg/mL (≈ 1.38 µM); with Klebsiella 8085, 0.25 µg/mL (≈ 0.692 µM); against E. coli A 261 it was 0.125 µg/mL (≈ 0.346 µM); against E. coli Neumann, 1 µg/mL (≈ 2.77 µM).

`CN1CCN(c2c(F)cc3c(=O)c(C(=O)O)cn4c3c2OC2CCCC24)CC1` (centres unmarked) [Example 3]: the MIC in the assay with E. coli T 7, against Klebsiella 8085, against E. coli A 261 and with E. coli Neumann was 2 µg/mL (≈ 5.16 µM) in each case.
